# Assay results as given in patent publication US20220332708A1 (Cytokinetics, Inc., priority 2021, published 2022).
# Test system: Bovine cardiac myofibrils
# Assay: Dose-dependent myofibril ATPase modulation (calcium-buffered, pyruvate kinase and lactate dehydrogenase-coupled ATPase assay at pCa25)
# Type: biochemical
# Settings: concentration at which ATPase activity was 1.4-fold higher than the bottom of the dose curve, mean of a minimum of two independent tests
# In short: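 Detergent-skinned bovine cardiac myofibrils (typically 0.25-1.0 mg/ml) in a pyruvate kinase/lactate dehydrogenase-coupled ATPase assay, 1 mM ATP, pH 6.80, free Ca2+ set by EGTA buffer to pCa25. ATP hydrolysis followed by A340; 4-parameter fit, AC1.4 as mean of at least two independent tests.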
row,SMILES,AC1.4 [µM]
1,"Cc1[nH]c(S(=O)(=O)N[C@H]2C[C@H](c3cccc(Cl)c3)C2)cc1C(=O)N1CC(C)(C#N)C1 [Compound 50, N-((trans)-3-(3-chlorophenyl)cyclobutyl)-4-(3-cyano-3-methylazetidine-1-carbonyl)-5-methyl-1H-pyrrole-2-sulfonamide]",0.5466
2,"Cc1[nH]c(S(=O)(=O)N[C@H]2C[C@@H](c3cccc(C(F)(F)F)c3)C2)cc1C(=O)N1CC(C)(C#N)C1 [Compound 54, 4-(3-Cyano-3-methylazetidine-1-carbonyl)-5-methyl-N-((cis)-3-(3-(trifluoromethyl)phenyl)cyclobutyl)-1H-pyrrole-2-sulfonamide]",2.9934
3,"CNc1cc2c(cc1S(=O)(=O)N[C@H]1CC[C@@H](Nc3ccccc3)C1)c(=O)[nH]c(=O)n2C (relative stereo) [Compound 19, 1-Methyl-7-(methylamino)-2,4-dioxo-N-((cis)-3-(phenylamino)cyclopentyl)-1,2,3,4-tetrahydroquinazoline-6-sulfonamide]",0.6379
4,"Cc1[nH]c(S(=O)(=O)N[C@H]2C[C@H](c3cccc(F)c3)C2)cc1C(=O)N1CC(C)(C#N)C1 [Compound 51, 4-(3-Cyano-3-methylazetidine-1-carbonyl)-N-((trans)-3-(3-fluorophenyl)cyclobutyl)-5-methyl-1H-pyrrole-2-sulfonamide]",2.8889
5,"CNc1cc2nc(C)[nH]c(=O)c2cc1S(=O)(=O)N[C@H]1C[C@@H](Nc2cccc(F)c2)C1 [Compound 15, N-((cis)-3-((3-fluorophenyl)amino)cyclobutyl)-2-methyl-7-(methylamino)-4-oxo-3,4-dihydroquinazoline-6-sulfonamide]",1.019
6,Cc1[nH]c(S(=O)(=O)N[C@@H]2CCc3c([nH]c4ccccc34)C2)cc1C(=O)N1CC(C)(O)C1 [Compound 43],0.1254
7,"Cc1[nH]c(S(=O)(=O)N[C@@H]2Cc3cc(F)c(Cl)cc3C2)cc1C(=O)N1CC2(C1)CC(F)(F)C2 [Compound 97, (R)-N-(5-chloro-6-fluoro-2,3-dihydro-1H-inden-2-yl)-4-(6,6-difluoro-2-azaspiro[3.3]heptane-2-carbonyl)-5-methyl-1H-pyrrole-2-sulfonamide]",0.2269
8,CNc1cc2c(cc1S(=O)(=O)N[C@H]1C[C@H](n3cc(C(F)(F)F)c(C)n3)C1)c(=O)[nH]c(=O)n2C [Compound 61],0.3215
9,"Cc1[nH]c(S(=O)(=O)N[C@@H]2CCc3c([nH]c4ccccc34)C2)cc1C(N)=O [Compound 38, (R)-2-methyl-5-(N-(2,3,4,9-tetrahydro-1H-carbazol-2-yl)sulfamoyl)-1H-pyrrole-3-carboxamide]",4.3985
10,"COCCNC(=O)c1cc(S(=O)(=O)NC2CCc3c([nH]c4ccccc34)C2)[nH]c1C (stereo not shown) [Compound 37, N-(2-methoxyethyl)-2-methyl-5-(N-(2,3,4,9-tetrahydro-1H-carbazol-2-yl)sulfamoyl)-1H-pyrrole-3-carboxamide]",2.9421
11,"CNc1cc2c(cc1S(=O)(=O)NC1CC(c3ccccc3)C1)c(=O)[nH]c(=O)n2C (stereo not shown) [Compound 20, 1-Methyl-7-(methylamino)-2,4-dioxo-N-(3-phenylcyclobutyl)-1,2,3,4-tetrahydroquinazoline-6-sulfonamide]",3.9537
12,"Cc1cc(S(=O)(=O)N[C@@H]2COc3cc(F)c(Cl)cc3[C@@H]2O)cc(N2CC(C)(C)C2)n1 [Compound 87, N-((3R,4S)-6-chloro-7-fluoro-4-hydroxychroman-3-yl)-2-(3,3-dimethylazetidin-1-yl)-6-methylpyridine-4-sulfonamide]",3.783
13,"CNc1cc2nc(C)[nH]c(=O)c2cc1S(=O)(=O)Nc1ccc(N2C[C@H](C)C[C@@H](C)C2)nc1 [Compound 8, N-(6-((3R,5R)-3,5-dimethylpiperidin-1-yl)pyridin-3-yl)-2-methyl-7-(methylamino)-4-oxo-3,4-dihydroquinazoline-6-sulfonamide]",0.6695
